Several values for one entry are separate records, joined by “and”; a condition that tells them apart may be missing. Identical values can stand only once.
Assays:
injection site skin = experiment: In vivo tolerability after intradermal injection: H&E staining of injection site skin; design: species or system C57BL/6J mice; key to Infiltration, mononuclear cells, dermis/subcutaneous, focal, Grade / Edema, subcutaneous, focal, Grade / Erosion, focal, Grade / Skin, Grade: 1==minimal; 2=mild; 3=moderate; 4=marked; 5=severe; N=Normal; NA=Not applicable; —=No data; conditions: intradermal 0.15 mg/kg, 72 h, Formulation 001, RNA 331; for Total score: sum of lesion grades of the group (N=3)
Description: 7-8 week old, female C57BL/6J mice (N=3) were injected with 0.15 mg*kg−1 of RNA-LNIPs encoding for firefly-luciferase by intradermal injection. At 72-hours post injection, injection site skin from each animal was collected in 10% formalin, for H&E staining. PBS group (N=2) as control. (Note: 1==minimal, 2=mild, 3=moderate, 4=marked, 5=severe; N=Normal; NA=Not applicable; —=No data)

hEPO = experiment: In vivo expression by IM: serum hEPO concentration by ELISA; conditions: IM 0.075 mg/kg, male C57BL/6J mice N=3, Formulation 001, RNA 019
Description: Circular RNA payloads were suspended in 25 mM Acetate Buffer (pH 4.5). To form LNPs, three volumes of human erythropoietin (hEPO) encoding cirRNA (SEQ ID NO:2), were mixed with one volume of lipids in ethanol solution by microfluidic mixing with the INano™ L+ (Micro& Nano) at a flow rate of 12 ml/min. The molar ratio of ionizable lipid to ribonucleotide was 6. After encapsulation, the particles were dialyzed twice against PBS. The LNP formulation was concentrated to targeted RNA concentration by Amicon® Ultra Centrifugal Filter (100 kDa MWCO) and filtered by a 0.65/0.22 um sterile filter.
6-8 week old, male C57BL/6J mice (N=3) were injected with 0.075 mg*kg−1 of RNA-LNPs encoding for hEPO by intramuscular injection. At 2-/6-/24-/48-/72 h-hours post injection, about 80 μL blood will be harvested and immediately added to the procoagulant containing tube. Stand for 30 min at room temperature and then centrifuged at 2500 g×10 min to obtain serum. About 30 μL serum samples will be aliquoted for hEPO concentration detection by ELISA kit (STEMCELL Technologies).

MCP-1 = experiment: In vivo tolerability by IV: serum MCP-1 by Luminex; design: species or system C57BL/6J mice; conditions: Formulation No. 001, RNA No. 331, male C57BL/6J mice, 1.0 mg*kg/1 intravenous
Outline: (§1)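 Male C57BL/6J mice aged 6-8 weeks (N=3) received 1.0 mg*kg−1 firefly-luciferase RNA-LNPs intravenously, with PBS as negative control. Serum taken at 2 and 24 h post-injection was assayed for MCP-1 and IL-6 by Luminex.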

IL-6 = experiment: In vivo tolerability by IV: serum IL-6 by Luminex; design: species or system C57BL/6J mice; conditions: Formulation No. 001, RNA No. 331, male C57BL/6J mice, 1.0 mg*kg/1 intravenous
Outline: as §1

C57BL/6J mice = experiment: In vivo expression by IV, 1.0 mg/kg luciferase RNA-LNPs, whole-body and organ IVIS luminescence; conditions: Formulation No. 001, RNA No. 331; male C57BL/6J mice, 1.0 mg*kg−1 intravenous, 24-hours post injection
Outline: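 Male C57BL/6J mice, 6-8 weeks old (N=3), received 1.0 mg*kg−1 firefly-luciferase RNA-LNPs IV. At 24 h post-dose, luciferin (15 mg/ml) was given IP, and whole-body, liver, spleen, kidney, small and large intestine luminescence was imaged by IVIS.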

## CCCCC/C=C\C/C=C\CCCCCCCC(=O)NC(COC(=O)NCCN1CCCCC1)C(=O)OCCCCCCCC(=O)OC(CCCCCCCC)CCCCCCCC (stereo not drawn) [Lipid 549]
Injection site skin; per animal
  Edema, subcutaneous, focal, Grade: — and 1 (2×)
  Erosion, focal, Grade: —
  Infiltration, mononuclear cells, dermis/subcutaneous, focal, Grade: — and 1 (2×)
  Skin, Grade: N
Injection site skin
  Total score: 4
hEPO; 2 h
  hEPO conc. (ng/mL) at 2 h: 2.47 ng/mL
hEPO; 6 h
  hEPO conc. (ng/mL) at 6 h: 7.26 ng/mL
hEPO; 24 h
  hEPO conc. (ng/mL) at 24 h: 12.57 ng/mL
hEPO; 48 h
  hEPO conc. (ng/mL) at 48 h: 2.61 ng/mL
hEPO; 72 h
  hEPO conc. (ng/mL) at 72 h: 0.87 ng/mL

## CCCCCCCC/C=C\CCCCCCCC(=O)NC(COC(=O)NCCN1CCCCC1)C(=O)OCCCCCCCCOC(=O)C(CCCCCC)CCCCCCCC (stereo not drawn) [Lipid 700]
Injection site skin; per animal
  Edema, subcutaneous, focal, Grade: 1 (2×) and 2
  Erosion, focal, Grade: —
  Infiltration, mononuclear cells, dermis/subcutaneous, focal, Grade: 1
Injection site skin
  Total score: 7

## CCCCCCCCC(CCCCCC)C(=O)OCCCCCCCCOC(=O)NC(COC(=O)NCCN1CCCCC1)C(=O)OCCCCCCCCOC(=O)C(CCCCCC)CCCCCCCC (stereo not drawn) [Lipid 888]
MCP-1; 2 hours post injection
  MCP-1 at 2 h: 396 pg/mL
MCP-1; 24 hours post injection
  MCP-1 at 24 h: 206 pg/mL
IL-6; 2 hours post injection
  IL-6 at 2 h: 5.5 pg/mL
IL-6; 24 hours post injection
  IL-6 at 24 h: 5.71 pg/mL
C57BL/6J mice
  Kidney (p/s): 2.72E+07 p/s
  Large intestine (p/s): 1.07E+08 p/s
  Liver (p/s): 4.61E+09 p/s
  Small intestine (p/s): 8.59E+08 p/s
  Spleen (p/s): 2.55E+08 p/s
  Whole body (p/s): 4.10E+09 p/s
